Reference: patent US20250100995A1, “CEREBLON BINDING COMPOUNDS, COMPOSITIONS THEREOF, AND METHODS OF TREATMENT THEREWITH” (CELGENE CORPORATION, priority 2021, published 2025)

Target: T1, AR (Homo sapiens, UniProt P10275)
T1 construct: endogenous in cells; host or cells: VCaP cells
T1 sequence (P10275 1-920): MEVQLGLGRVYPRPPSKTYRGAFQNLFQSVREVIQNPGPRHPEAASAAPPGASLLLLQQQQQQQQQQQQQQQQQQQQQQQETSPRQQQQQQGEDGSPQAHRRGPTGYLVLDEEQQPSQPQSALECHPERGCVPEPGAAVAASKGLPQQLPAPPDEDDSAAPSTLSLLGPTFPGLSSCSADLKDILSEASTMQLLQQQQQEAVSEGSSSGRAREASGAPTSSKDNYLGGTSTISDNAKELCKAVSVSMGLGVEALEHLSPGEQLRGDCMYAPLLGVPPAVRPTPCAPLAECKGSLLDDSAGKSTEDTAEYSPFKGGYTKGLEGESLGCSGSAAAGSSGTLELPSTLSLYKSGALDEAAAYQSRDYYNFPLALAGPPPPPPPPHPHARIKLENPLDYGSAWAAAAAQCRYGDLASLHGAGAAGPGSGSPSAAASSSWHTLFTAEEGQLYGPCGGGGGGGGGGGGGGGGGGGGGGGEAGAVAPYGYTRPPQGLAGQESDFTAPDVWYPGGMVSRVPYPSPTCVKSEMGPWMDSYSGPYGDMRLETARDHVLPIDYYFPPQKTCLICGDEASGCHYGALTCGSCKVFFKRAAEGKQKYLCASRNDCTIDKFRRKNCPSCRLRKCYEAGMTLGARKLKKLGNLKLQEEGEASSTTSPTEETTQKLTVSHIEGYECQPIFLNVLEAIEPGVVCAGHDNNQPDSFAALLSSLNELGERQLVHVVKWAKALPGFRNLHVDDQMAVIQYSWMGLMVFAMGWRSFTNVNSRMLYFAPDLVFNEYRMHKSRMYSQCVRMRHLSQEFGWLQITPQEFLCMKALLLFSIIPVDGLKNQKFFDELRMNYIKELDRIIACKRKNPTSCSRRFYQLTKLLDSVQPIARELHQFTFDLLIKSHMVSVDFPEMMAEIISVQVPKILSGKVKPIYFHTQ
Experiment: VCAP AR Degradation Assay
Assay type: cell-based
Settings: VCaP cells, 24 h, AR ELISA; for DC50: concentration of compound when AR level = 50% of DMSO control; for Y: lowest measured AR level normalized to DMSO control (AR degradation efficiency)
Experimental: VCAP AR Degradation Assay. Test compounds were pre-dispensed into a Corning CellBind 96-well clear bottom plate (Cat #3300) using an acoustic dispenser to make a 10-point concentration series at 1:3 dilution for each compound. The final top concentration of each compound was 5 μM. DMSO at a final concentration of 0.1% was used as a control. VCaP cells cultured in DMEM with 8% fetal bovine serum (FBS) were seeded at 50K cells per well in a 200 μL volume into the compound plate and incubated at 37° C. in a CO2 incubator for 24 h. The medium was carefully removed from the cells and the plate was placed on ice. One hundred μL of ice-cold 1× cell lysis buffer from Cell Signaling Technologies (Cat #9803) was added to each well of the cells and the plate was incubated at 4° C. on a shaker for 1 h. Fifteen μL of cell lysate was used for AR ELISA detection using a PathScan Total Sandwich AR ELISA kit (Cell Signaling Technology, Cat #12580). AR levels in compound-treated wells were normalized to that of DMSO control and expressed as percent of control (PoC) (y). A Four Parameter Logistic Model (Sigmoidal Dose-Response Model) was used to determine the compound's DC50, and EC50, using the following equation: […]
The lowest measured AR level normalized to DMSO control in response to compound treatment, termed Y value, was used to characterize the compound-mediated AR degradation efficiency.

| Compound | DC50 [µM] | Y |
| --- | --- | --- |
| C[C@@H]1C[C@H](OCC[C@H]2CC[C@H](N3C(=S)N(c4ccc(C#N)c(C(F)(F)F)c4)C(=O)C3(C)C)CC2)C[C@H](C)N1CC(=O)Nc1cc(C2CCC(=O)NC2=O)ccn1 (stereo partly drawn) [Cmpd 27, 2-((2R,4r,6S)-4-(2-((trans)-4-(3-(4-Cyano-3-(trifluoromethyl)phenyl)-5,5-dimethyl-4-oxo-2-thioxoimidazolidin-1-yl)cyclohexyl)ethoxy)-2,6-dimethylpiperidin-1-yl)-N-(4-(2,6-dioxopiperidin-3-yl)pyridin-2-yl)acetamide] | 0.005 to 0.05 | ** (20%<Y≤40%) |
| C[C@@H]1C[C@H](OCCC[C@H]2CC[C@H](N3C(=S)N(c4ccc(C#N)c(C(F)(F)F)c4)C(=O)C3(C)C)CC2)C[C@H](C)N1CC(=O)Nc1cc(C2CCC(=O)NC2=O)ccn1 (stereo partly drawn) [Cmpd 28, 2-((2R,4r,6S)-4-(3-((trans)-4-(3-(4-Cyano-3-(trifluoromethyl)phenyl)-5,5-dimethyl-4-oxo-2-thioxoimidazolidin-1-yl)cyclohexyl)propoxy)-2,6-dimethylpiperidin-1-yl)-N-(4-(2,6-dioxopiperidin-3-yl)pyridin-2-yl)acetamide] | 0.005 to 0.05 | ** (20%<Y≤40%) |
| C[C@@H]1C[C@H](OCCO[C@H]2CC[C@H](N3C(=S)N(c4ccc(C#N)c(C(F)(F)F)c4)C(=O)C3(C)C)CC2)C[C@H](C)N1CC(=O)Nc1cc(C2CCC(=O)NC2=O)ccn1 (stereo partly drawn) [Cmpd 29, 2-((2R,4r,6S)-4-(2-(((trans)-4-(3-(4-Cyano-3-(trifluoromethyl)phenyl)-5,5-dimethyl-4-oxo-2-thioxoimidazolidin-1-yl)cyclohexyl)oxy)ethoxy)-2,6-dimethylpiperidin-1-yl)-N-(4-(2,6-dioxopiperidin-3-yl)pyridin-2-yl)acetamide] | 0.005 to 0.05 | ** (20%<Y≤40%) |
| C[C@@H]1C[C@H](OCC[C@H]2CC[C@H](N3C(=S)N(c4cnc(C#N)c(C(F)(F)F)c4)C(=O)C3(C)C)CC2)C[C@H](C)N1CC(=O)Nc1cc(C2CCC(=O)NC2=O)ccn1 (stereo partly drawn) [Cmpd 30, 2-((2R,4r,6S)-4-(2-((trans)-4-(3-(6-Cyano-5-(trifluoromethyl)pyridin-3-yl)-5,5-dimethyl-4-oxo-2-thioxoimidazolidin-1-yl)cyclohexyl)ethoxy)-2,6-dimethylpiperidin-1-yl)-N-(4-(2,6-dioxopiperidin-3-yl)pyridin-2-yl)acetamide] | 0.005 to 0.05 | * (0<Y≤20%) |
